Reference: patent US10774064B2 (Cadent Therapeutics, Inc., priority 2016, dated 2020)

Biological target: T1, small-conductance Ca2+-activated K+ channels (SK channels, subtype 2) (Homo sapiens, UniProt Q9H2S1)
T1 construct: expressed in transfected cells; host or cells: HEK293
Experiment: whole-cell patch-clamp of ionic current through SK2 channels in HEK293 cells (SC100)
Format: cell-based
Conditions: concentration that increases the basal current by 100%; HEK293 cells expressing SK2 channels
Procedure: The biological activity was determined as follows. The ionic current through small-conductance Ca^2+-activated K^+ channels (SK channels, subtype 2) was measured using the whole-cell configuration of the patch-clamp technique in a patch-clamp set-up using HEK293 tissue culture cells expressing SK2 channels as described in Hougaard et al., British Journal of Pharmacology 151, 655-665, May 8, 2007, the entire teachings of which are incorporated herein by reference. In one aspect, a compound is defined to be an SK PAM if the compound increases current in this assay, for example, if the SC100 value of the compound is less than or equal to 10 μM as determined by this assay. The SC100 value is defined to be the concentration of compound that increases the basal current by 100%.

| SMILES | SC100 |
| --- | --- |
| Cc1cc(C)n(-c2cc(N3CC4(COC4)C3)nc(NC3CCC(F)(F)CC3)n2)n1 [Compound 108, N-(4,4-difluorocyclohexyl)-4-(3,5-dimethyl-1H-pyrazol-1-yl)-6-(2-oxa-6-azaspiro[3.3]heptan-6-yl)pyrimidin-2-amine] | + (+ means >1 uM) |
| CCc1cnc(-n2nc(C)cc2C)nc1NC1CCC(F)(F)CC1 [Compound 111, N-(4,4-difluorocyclohexyl)-2-(3,5-dimethyl-1H-pyrazol-1-yl)-5-ethylpyrimidin-4-amine] | + (+ means >1 uM) |
| Cc1cc(C)n(-c2cc(N3CCOC(C(N)=O)C3)nc(NC3CCC(F)(F)CC3)n2)n1 (centres unmarked) [Compound 114, 4-(2-((4,4-difluorocyclohexyl)amino)-6-(3,5-dimethyl-1H-pyrazol-1-yl)pyrimidin-4-yl)morpholine-2-carboxamide] | + (+ means >1 uM) |
| Cc1cc(C)n(-c2nc(NC3CCC(F)(F)CC3)cc(N3CCOC(C(N)=O)C3)n2)n1 (centres unmarked) [Compound 115, 4-(6-((4,4-difluorocyclohexyl)amino)-2-(3,5-dimethyl-1H-pyrazol-1-yl)pyrimidin-4-yl)morpholine-2-carboxamide] | + (+ means >1 uM) |
| Cc1cc(C)n(-c2nc3c(c(NC4CCC(F)(F)CC4)n2)CCN(Cc2ccccc2)C3)n1 [Compound 116] | ++ (++ means 200 nM-1000 nM) |
| Cc1cc(C)n(-c2nc3c(c(NC4CCC(F)(F)CC4)n2)CCN(CCO)C3)n1 [Compound 118, 2-(4-((4,4-difluorocyclohexyl)amino)-2-(3,5-dimethyl-1H-pyrazol-1-yl)-5,8-dihydropyrido[3,4-d]pyrimidin-7(6H)-yl)ethan-1-ol] | + (+ means >1 uM) |
| Cc1cc(C)n(-c2nc3c(c(NC4CCC(F)(F)CC4)n2)CCN(CC(N)=O)C3)n1 [Compound 121, 2-(4-((4,4-difluorocyclohexyl)amino)-2-(3,5-dimethyl-1H-pyrazol-1-yl)-5,8-dihydropyrido[3,4-d]pyrimidin-7(6H)-yl)acetamide] | + (+ means >1 uM) |
| Cc1cc(C)n(-c2nc3c(c(NC4CCC(F)(F)CC4)n2)CCN(CC#N)C3)n1 [Compound 122, 2-(4-((4,4-difluorocyclohexyl)amino)-2-(3,5-dimethyl-1H-pyrazol-1-yl)-5,8-dihydropyrido [3,4-d]pyrimidin-7(6H)-yl)acetonitrile] | + (+ means >1 uM) |
| Cc1cc(C)n(-c2nc3c(c(NC4CCC(F)(F)CC4)n2)CCN(C(C)C)C3)n1 [Compound 123, N-(4,4-difluorocyclohexyl)-2-(3,5-dimethyl-1H-pyrazol-1-yl)-7-isopropyl-5,6,7,8-tetrahydropyrido[3,4-d]pyrimidin-4-amine] | + (+ means >1 uM) |
| Cc1cc(C)n(-c2nc(NC3CCC(F)(F)CC3)cc(NC3CCN(C)C3=O)n2)n1 (centres unmarked) [Compound 125, 3-((6-((4,4-difluorocyclohexyl)amino)-2-(3,5-dimethyl-1H-pyrazol-1-yl)pyrimidin-4-yl)amino)-1-methylpyrrolidin-2-one] | + (+ means >1 uM) |
| Cc1cc(C)n(-c2cc(-n3cccn3)cc(NC3CCC(F)(F)CC3)n2)n1 [Compound 127, N-(4,4-difluorocyclohexyl)-6-(3,5-dimethyl-1H-pyrazol-1-yl)-4-(1H-pyrazol-1-yl)pyridin-2-amine] | ++ (++ means 200 nM-1000 nM) |
| CC(=O)N1CCN(c2cc(NC3CCC(F)(F)C3)nc(-n3nc(C)cc3C)n2)CC1 (centres unmarked) [Compound 130, 1-(4-(6-((3,3-difluorocyclopentyl)amino)-2-(3,5-dimethyl-1H-pyrazol-1-yl)pyrimidin-4-yl)piperazin-1-yl)ethan-1-one] | + (+ means >1 uM) |
| Cc1cc(C)n(-c2nc(NC3CCC(F)(F)CC3)cc(C(N)=O)n2)n1 [Compound 131, 6-((4,4-difluorocyclohexyl)amino)-2-(3,5-dimethyl-1H-pyrazol-1-yl)pyrimidine-4-carboxamide] | + (+ means >1 uM) |
| CC(=O)N1CCN(c2cc(N(C)C3CCC(F)(F)CC3)nc(-n3nc(C)cc3C)n2)CC1 [Compound 132, 1-(4-(6-((4,4-difluorocyclohexyl)(methyl)amino)-2-(3,5-dimethyl-1H-pyrazol-1-yl)pyrimidin-4-yl)piperazin-1-yl)ethan-1-one] | ++ (++ means 200 nM-1000 nM) |
| Cc1cc(C)n(-c2nc(NC3CCC(F)(F)CC3)cc(NC3CCCN(C)C3=O)n2)n1 (centres unmarked) [Compound 133, 3-((6-((4,4-difluorocyclohexyl)amino)-2-(3,5-dimethyl-1H-pyrazol-1-yl)pyrimidin-4-yl)amino)-1-methylpiperidin-2-one] | + (+ means >1 uM) |
| CC(=O)N1CCN(c2cc(NC3CCC(F)(F)CC3)nc(-n3nc(C)cc3C)c2)CC1 [Compound 134, 1-(4-(2-((4,4-difluorocyclohexyl)amino)-6-(3,5-dimethyl-1H-pyrazol-1-yl)pyridin-4-yl)piperazin-1-yl)ethan-1-one] | ++ (++ means 200 nM-1000 nM) |
| Cc1cc(C)n(-c2nc(NC3CCC(F)(F)CC3)cc(C(F)F)n2)n1 [Compound 142, N-(4,4-difluorocyclohexyl)-6-(difluoromethyl)-2-(3,5-dimethyl-1H-pyrazol-1-yl)pyrimidin-4-amine] | + (+ means >1 uM) |
| Cc1cc(NC2CCC(C(F)(F)F)CC2)nc(-n2ccc(C)n2)n1 (centres unmarked) [Compound 144, 6-methyl-2-(3-methyl-1H-pyrazol-1-yl)-N-(4-(trifluoromethyl)cyclohexyl)pyrimidin-4-amine] | + (+ means >1 uM) |

Now from value to molecule:

| SC100 | SMILES |
| --- | --- |
| + (+ means >1 uM) | Cc1cc(C)n(-c2nc(NC3CCC(F)(F)CC3)cc(NC(C)C(N)=O)n2)n1 (centres unmarked) [Compound 109, 2-((6-((4,4-difluorocyclohexyl)amino)-2-(3,5-dimethyl-1H-pyrazol-1-yl)pyrimidin-4-yl)amino)propanamide] |
| ++ (++ means 200 nM-1000 nM) | Cc1cc(C)n(-c2nc(NC3CCC(F)(F)CC3)cc(-n3cccn3)n2)n1 [Compound 117, N-(4,4-difluorocyclohexyl)-2-(3,5-dimethyl-1H-pyrazol-1-yl)-6-(1H-pyrazol-1-yl)pyrimidin-4-amine] |
| ++ (++ means 200 nM-1000 nM) | Cc1cc(-n2ccc(C)n2)nc(NC2CCC(F)(F)CC2)n1 [Compound 120, N-(4,4-difluorocyclohexyl)-4-methyl-6-(3-methyl-1H-pyrazol-1-yl)pyrimidin-2-amine] |
| + (+ means >1 uM) | Cc1cc(C)n(-c2nc(NC3CCC(F)(F)CC3)cc(NC(C)c3nccs3)n2)n1 (centres unmarked) [Compound 124, N4-(4,4-difluorocyclohexyl)-2-(3,5-dimethyl-1H-pyrazol-1-yl)-N6-(1-(thiazol-2-yl)ethyl)pyrimidine-4,6-diamine] |
| + (+ means >1 uM) | Cc1cc(C)n(-c2nc(NC3CCC(F)(F)CC3)cc(N[C@@H]3CCN(C)C3=O)n2)n1 [Compound 129, (−)-3-((6-((4,4-difluorocyclohexyl)amino)-2-(3,5-dimethyl-1H-pyrazol-1-yl)pyrimidin-4-yl)amino)-1-methylpyrrolidin-2-one] |
| ++ (++ means 200 nM-1000 nM) | Cc1cc(C)n(-c2nc(NC3CCC(F)(F)CC3)cc(C(C)O)n2)n1 (centres unmarked) [Compound 136] |
| ++ (++ means 200 nM-1000 nM) | Cc1cc(C)n(-c2nc(CO)cc(NC3CCC(F)(F)CC3)n2)n1 [Compound 137, (6-((4,4-difluorocyclohexyl)amino)-2-(3,5-dimethyl-1H-pyrazol-1-yl)pyrimidin-4-yl)methanol] |
| + (+ means >1 uM) | Cc1ccn(-c2nc(NC3CCC(F)(F)CC3)cc(N3CC(C)(O)C3)n2)n1 [Compound 140, 1-(6-((4,4-difluorocyclohexyl)amino)-2-(3-methyl-1H-pyrazol-1-yl)pyrimidin-4-yl)-3-methylazetidin-3-ol] |
| ++ (++ means 200 nM-1000 nM) | Cc1ccn(-c2nc(NC3CCC(F)(F)CC3)cc(NC3COC3)n2)n1 [Compound 141, N4-(4,4-difluorocyclohexyl)-2-(3-methyl-1H-pyrazol-1-yl)-N6-(oxetan-3-yl)pyrimidine-4,6-diamine] |
| ++ (++ means 200 nM-1000 nM) | Cc1ccn(-c2nc(NC3CCC(F)(F)CC3)cc(N3CC(N(C)C)C3)n2)n1 [Compound 143, N-(4,4-difluorocyclohexyl)-6-(3-(dimethylamino)azetidin-1-yl)-2-(3-methyl-1H-pyrazol-1-yl)pyrimidin-4-amine] |
| + (+ means >1 uM) | Cc1cc(C)n(-c2nc(NCc3ncco3)cc(NC3CCC(F)(F)CC3)n2)n1 [Compound 145, N4-(4,4-difluorocyclohexyl)-2-(3,5-dimethyl-1H-pyrazol-1-yl)-N6-(oxazol-2-ylmethyl)pyrimidine-4,6-diamine] |
| ++ (++ means 200 nM-1000 nM) | Cc1ccn(-c2nc(NCC(C)(C)C)cc(NC3CCC(F)(F)CC3)n2)n1 [Compound 146, N4-(4,4-difluorocyclohexyl)-2-(3-methyl-1H-pyrazol-1-yl)-N6-neopentylpyrimidine-4,6-diamine] |
| ++ (++ means 200 nM-1000 nM) | Cc1ccn(-c2nc(NC3CCC(F)(F)CC3)cc(NC3CC(F)(F)C3)n2)n1 [Compound 147, N4-(3,3-difluorocyclobutyl)-N6-(4,4-difluorocyclohexyl)-2-(3-methyl-1H-pyrazol-1-yl)pyrimidine-4,6-diamine] |
| ++ (++ means 200 nM-1000 nM) | Cc1cc(NC2CCC(F)(F)CC2)nc(-n2ccc(C)n2)n1 [Compound 148, N-(4,4-difluorocyclohexyl)-6-methyl-2-(3-methyl-1H-pyrazol-1-yl)pyrimidin-4-amine] |
